US20040235920A1, “Novel use of substituted aminomethyl chromans for the treatment of movement disorders and of adverse effects induced by drugs administered to treat extrapyramidal movement disorders” (priority 2001, published 2004)

Tests used:
[1] = system: patients with cervical dystonia (spasmodic torticollis); test: Double-blind placebo-controlled study in cervical dystonia (TWSTRS); assay type: in vivo, human; conditions: 2.5 mg to 20 mg b.i.d.
[2] = system: schizophrenic inpatients on long-term antipsychotic treatment; test: Cross-over add-on study in tardive dyskinesia (AIMS); assay type: in vivo, human; conditions: up to 20 mg t.i.d., vs placebo period, typical study
Text: Tardive dyskinesia is a common adverse effect of long-term treatment with neuroleptics. A typical study to investigate the efficacy of the compounds according to the invention in tardive dyskinesia is described in the following. 32 schizophrenic (DSM-III-R) inpatients aged 25-60 years on long-term stable antipsychotic treatment (duration of at least 5 years) entered the study. (−)-(R)-2-{4-[[3,4-dihydro-2H-benzopyran-2-yl)-methyl]amino]butyl}-1,2-benzoisothiazol-3-(2H)-on-1,1-dioxide monohydrochloride or placebo is administered as “add on” to the antipsychotic treatment, which is kept constant during the whole study. The dose of blinded medication is titrated over a period of 3 weeks in a range from I to 20 mg t.i.d. Then the medication is maintained under double-blind conditions for 2 weeks. After a 2-week wash-out period, the test drugs are crossed over. Assessments of tardive dyskinesia by means of the Abnormal Involuntary Movement Scale (AIMS, see above) and of Parkinsonian extrapyramidal side effects (UPDRS, see above) are made pretreatment and posttreatment.

cataleptic rat = test: Reversal of catalepsy in rats (oral ED50); assay type: in vivo; conditions: rats; for ED50: Rattus norvegicus, read-out: oral ED50 value (calculated dose to reverse catalepsy by 50%); for oral ED50 value (calculated dose to reverse catalepsy by 50%) / ED50: oral
Protocol: Extrapyramidal motor side effects in e.g. rodents are measured by the ability of a drug to induce catalepsy. Catalepsy is defined as a state where an animal continues to remain in an unnormal (nonphysiological ‘uncomfortable’) posture for a long time (e.g.: M. E. Stanley and S. D. Glick, Neuropharmacology, 1996; 15: 393-394; C. J. E. Niemegeers and P. Janssen, Life Sci., 1979, […]). For example, if a hindpaw of a rat is placed on an elevated level, e.g. a platform elevated 3 cm above ground level, a normal rat immediately withdraws the hindpaw from the platform to the ground level. A cataleptic rat remains in this unnatural posture even for minutes.

MSA patients = test: Add-on study in MSA patients (UPDRS); assay type: in vivo, human; conditions: 1 to 20 mg t.i.d., typical study
Protocol: The study design is similar to that described above for Parkinson's disease. (−)-(R)-2-{4-[[3,4-dihydro-2H-benzopyran-2-yl)-methyl]amino]butyl}-1,2-benzoisothiazol-3-(2H)-on-1,1-dioxide monohydrochloride or placebo is titrated as “add on” to the conventional treatment (dose range 1 to 20 mg t.i.d.). After a double-bllind dose-finding phase of 3 weeks during which the individual dose is identified for each patient on the basis of tolerability and efficacy, the dose is maintained unchanged for 3 additional weeks. Before the start of titration and at the end of the treatment period a complete UPDRS assessment is performed in each patient (primary outcome measure).

[3] = system: patients with advanced idiopathic Parkinson's disease complicated by “peak-dose” dyskinesia; test: Double-blind add-on study in advanced idiopathic Parkinson's disease with peak-dose dyskinesia (diary card); assay type: in vivo, human; conditions: 2.5 to 10 mg b.i.d., typical study
Text: A typical study to investigate the efficacy of the compounds according to the invention for adverse effects in Parkinson's disease is described in the following. 40 patients of either sex with advanced idiopathic Parkinson's disease complicated by “peak-dose” dyskinesia participate in a double-blind study. The main inclusion criteria are Hoehn & Yahr stage≧2.5 (lit.: Hoehn H. M. et al, Neurology 1967; 17: 427-442), aged 40-75 years, symptom duration of at least 5 years, and a l-dopa treatment duration of at least 3 years. (−)-(R)-2-{4-[[3,4-dihydro-2H-benzopyran-2-yl)-methyl]amino]butyl}-1,2-benzoisothiazol-3-(2H)-on-1,1-dioxide monohydrochloride or placebo is administered as “add on” to the conventional Parkinson treatment, which is maintained unchanged during the whole study. The dose of blinded medication is titrated over a period of 3 weeks in a range from 2.5 to 10 mg b.i.d. Then the medication is kept constant for 3 weeks. Before the start of titration and at the end of the treatment period the patients fill a diary card in 30 min. inervalls for 48 hours. The diary card differentiates 5 different states: (1) “on” without dyskinesia, (2) “on” with troublesome dyskinesia, (3) “on” with non-troublesome dyskinesia, (4) “off” time, and (5) time asleep (Hauser RA et al., Clin. Neuropharmacol., 2000, 23, 75-81). The primary outcome variable of the protocol is the change in “on” time with troublesome dyskinesia. […] The other parameters are not changed.

[4] = system: advanced Parkinson patients; conditions: cited from earlier work

Q: With `Cl.O=C1c2ccccc2S(=O)(=O)N1CCCCNC[C@H]1CCc2ccccc2O1` [(−)-(R)-2-{4-[[3,4-dihydro-2H-benzopyran-2-yl)-methyl]amino]butyl}-1,2-benzoisothiazol-3-(2H)-on-1,1-dioxide monohydrochloride] as the compound, how does the TWSTRS scores [1] read?
A: Its TWSTRS scores is “significant improvement”.

Q: And the AIMS scores [2]?
A: Its AIMS scores is “significantly lower than during placebo period”.

Q: And the “oral ED50 value (calculated dose to reverse catalepsy by 50%)” value (cataleptic rat)?
A: Its value is 0,6 mg/kg.

Q: And the “potency in reversing catalepsy compared to other 5-HT1A agonists” value (cataleptic rat; oral ED50 vs ipsapirone, buspirone, gepirone, tandosirone)?
A: Its value is 30-100 times.

Q: What about the “UPDRS (Parkinson symptoms)” value (MSA patients) of the same compound?
A: Its value is “significant clinical improvement of Parkinson symptoms”.

Q: What about the other diary parameters [3] of the same compound?
A: The other diary parameters was “not changed”.

Q: And the ““on” time with troublesome dyskinesia” value [3]?
A: Its value is “significant reduction”.

Q: And the ““on” time without dyskinesia” value [3]?
A: The value was “significantly increase”.

Q: For `O=C1CC2(CCCC2)CC(=O)N1CCCCN1CCN(c2ncccn2)CC1` [buspirone], which anti-dyskinetic properties [4] is on record?
A: Its anti-dyskinetic properties is “moderate anti-dyskinetic properties”.

Q: What about the ED50 (cataleptic rat) of the same compound?
A: The ED50 was 30 mg/kg.

Q: Which ED50 (cataleptic rat) does the source give for `CC1(C)CC(=O)N(CCCCN2CCN(c3ncccn3)CC2)C(=O)C1` [gepirone] here?
A: The ED50 was 16 mg/kg.

Q: For `O=C1c2ccccc2S(=O)(=O)N1CCCCN1CCN(c2ncccn2)CC1` [ipsapirone], which ED50 (cataleptic rat) is on record?
A: The ED50 was 23 mg/kg.

Q: Which “oral ED50 value (calculated dose to reverse catalepsy by 50%)” value (cataleptic rat) does the source give for `O=C1[C@@H]2[C@H]3CC[C@H](C3)[C@@H]2C(=O)N1CCCCN1CCN(c2ncccn2)CC1` [tandosirone] here?
A: Its value is 60 mg/kg.
